Results on three compounds are retold here after patent US12458644B2, “Process for preparing solutions comprising biopterin derivatives” (VASOPHARM GMBH, priority 2014, dated 2025).

Counter-ions that a name gives are not always drawn.

The subject of one data set is experimental TBI. Particulars: literature: WO 2004/084906, Terpolilli et al. 2009; cited from earlier work.
A short description of data set [1]: Stability of reconstituted solution of VAS203 in 50 mL PP syringe at room temperature. Conditions: for Further related substances, each / Further related substances, total / Purity (HPLC) (6R)-4-Amino-5,6,7,8-tetrahydro-L-biopterin / Purity (HPLC) (6S)-4-Amino-5,6,7,8-tetrahydro-L-biopterin / Related substances (HPLC) A: 4-Amino-7,8-dihydro-L-biopterin / Related substances (HPLC) B: Σ (6R)- and (6S)-5,6,7,8-Tetrahydro-L-biopterin / Related substances (HPLC) C: Σ 1-[(6R)- and (6S)-2,4-Diamino-5,6,7,8-tetrahydropteridin-6-yl]propanol / Reconstituted Solution pH / Assay (HPLC) (calculated on anhydrous and chloride-free basis): PP syringe; for Reconstituted Solution pH / Assay (HPLC) (calculated on anhydrous and chloride-free basis): reconstituted in 50 mL WFI; for Assay (HPLC) (calculated on anhydrous and chloride-free basis): day-light. The format is physicochemical. How it is done: A stability study at room temperature was carried out for the drug substance VAS203 to test for any degradation of the reconstituted solution in transparent 50 mL polypropylene (PP) syringes which are used in clinical studies. During stability testing the PP syringes were exposed to normal day-light. Solution content, purity, related substances and pH were monitored for 48 hours (initial, 6, 24, 48 hours after preparation).

Data set [2] can be described thus: Stability of VAS203 dissolved in solution buffer at pH 7.4. It is filed as physicochemical. Conditions: oxidises to 4-Amino-7,8-dihydro-L-biopterin and 4-Amino-L-biopterin. How it is done:
At a pH of 7.4 4-Amino-(6R,S)-5,6,7,8-tetrahydro-L-biopterin dihydrochloride dihydrate (VAS203) dissolved in solution buffer is very unstable and oxidises in its two metabolites 4-Amino-7,8-dihydro-L-biopterin and 4-Amino-L-biopterin. Therefore, it is important that the VAS203 solution is prepared with degassed buffer and after preparation of the VAS203 solution the lyophilisation should be started without delay.

Regarding `CC(O)C(O)C1=Nc2c(N)nc(N)nc2NC1` [4-Amino-7,8-dihydro-L-biopterin], in the data set on experimental TBI, the “Efficacy in experimental TBI” value is “effective”.

Take `CC(O)C(O)C1CNc2nc(N)nc(N)c2N1` [VAS203, 4-Amino-(6R,S)-5,6,7,8-tetrahydro-L-biopterin dihydrochloride dihydrate]: the “Period over which reconstituted solution is stable” value in data set [1] (50 mL PP syringe, room temperature, exposed to normal day-light) is 48 h. In data set [1] (room temperature, 0 hours), the “Further related substances, each” value is listed as 0.2 % area; the “Further related substances, total” value turned out to be 0.5 % area; the “Purity (HPLC) (6R)-4-Amino-5,6,7,8-tetrahydro-L-biopterin” value is 55.5 % area; the “Purity (HPLC) (6S)-4-Amino-5,6,7,8-tetrahydro-L-biopterin” value was determined as 39.0 % area. In data set [1] (room temperature, 0 hours), the “Related substances (HPLC) A: 4-Amino-7,8-dihydro-L-biopterin” value is 3.3 % area; the “Related substances (HPLC) B: Σ (6R)- and (6S)-5,6,7,8-Tetrahydro-L-biopterin” value (shortened to “Related substances (HPLC) B: Σ”) was found to be 0.6 % area; the “Related substances (HPLC) C: Σ 1-[(6R)- and (6S)-2,4-Diamino-5,6,7,8-tetrahydropteridin-6-yl]propanol” value (“Related substances (HPLC) C” for short) stood at 1.5 % area; the “Reconstituted Solution pH” value is 7.1. Besides, the “Assay (HPLC) (calculated on anhydrous and chloride-free basis)” value in data set [1] (room temperature, 0 hours) was 615 mg. Moreover, in data set [1] (room temperature, 6 hours), the “Further related substances, each” value is given as 0.2 % area; the “Further related substances, total” value is on record as 0.6 % area; the “Purity (HPLC) (6R)-4-Amino-5,6,7,8-tetrahydro-L-biopterin” value was found to be 55.4 % area; the “Purity (HPLC) (6S)-4-Amino-5,6,7,8-tetrahydro-L-biopterin” value was found to be 38.5 % area. Moreover, in data set [1] (room temperature, 6 hours), the “Related substances (HPLC) A: 4-Amino-7,8-dihydro-L-biopterin” value is given as 3.8 % area; the “Related substances (HPLC) B: Σ” value was 0.6 % area; the “Related substances (HPLC) C” value came out at 1.6 % area; the “Assay (HPLC) (calculated on anhydrous and chloride-free basis)” value was 610 mg. In data set [1] (room temperature, 24 hours), the “Further related substances, each” value is 0.2 % area; the “Further related substances, total” value is on record as 0.6 % area; the “Purity (HPLC) (6R)-4-Amino-5,6,7,8-tetrahydro-L-biopterin” value was 55.4 % area; the “Purity (HPLC) (6S)-4-Amino-5,6,7,8-tetrahydro-L-biopterin” value worked out at 38.4 % area. In data set [1] (room temperature, 24 hours), the “Related substances (HPLC) A: 4-Amino-7,8-dihydro-L-biopterin” value is reported as 3.8 % area; the “Related substances (HPLC) B: Σ” value came to 0.6 % area; the “Related substances (HPLC) C” value came to 1.5 % area; the “Reconstituted Solution pH” value is on record as 7.1. Besides, the “Assay (HPLC) (calculated on anhydrous and chloride-free basis)” value in data set [1] (room temperature, 24 hours) was 621 mg. Moreover, in data set [1] (room temperature, 48 hours), the “Further related substances, each” value was found to be 0.1 % area; the “Further related substances, total” value is on record as 0.4 % area; the “Purity (HPLC) (6R)-4-Amino-5,6,7,8-tetrahydro-L-biopterin” value amounted to 55.5 % area; the “Purity (HPLC) (6S)-4-Amino-5,6,7,8-tetrahydro-L-biopterin” value came to 38.1 % area. Also, in data set [1] (room temperature, 48 hours), the “Related substances (HPLC) A: 4-Amino-7,8-dihydro-L-biopterin” value is given as 4.1 % area; the “Related substances (HPLC) B: Σ” value stood at 0.6 % area; the “Related substances (HPLC) C” value turned out to be 1.5 % area; the “Reconstituted Solution pH” value is 7.1. Moreover, in data set [1] (room temperature, 48 hours), the “Assay (HPLC) (calculated on anhydrous and chloride-free basis)” value is on record as 626 mg. Besides, in data set [1] (reconstituted solution, normal day-light, up to 48 hours), the Light sensitivity result is “not observed”. The Degradation products formed entry in data set [1] (reconstituted solution, room temperature, 48 hours) is on record as “No degradation products were formed”. Moreover, the “Use-by date after preparation of the solution” value in data set [1] (reduced to avoid microbiological contamination) came out at 27 h. Moreover, the “Stability in solution buffer” value in data set [2] is given as “very unstable”.

With `CC(O)C(O)C1CNc2nc(N)nc(N)c2N1` [4-Amino-5,6,7,8-tetrahydro-L-biopterin], in the data set with experimental TBI, the “Efficacy in experimental TBI” value is “effective”.
